Measurements published in US20060073099A1, “Treatment screening methods” (priority 2004, published 2006).

Tested on: Macaca mulatta (Rhesus monkey) exposed to a 6 Gy dose of γ-radiation (LD50/30)
Method: Treatment of whole body lethal radiation and characterization of mortality surrogate markers. Two groups of 10 Macaca mulatta (Rhesus monkey) were exposed to a 6 Gy dose of γ-radiation from a ^60Co source. This dose is an LD50/30 dose for this species. […] The animals in each group were treated once per day for 5 consecutive days beginning on the day the animals were exposed to radiation. The animals consisted of 12 males and 8 females with a body weight range of about 2.5-5.5 kg at the onset of treatment. The age range was 1.75-5.0 years at the onset of treatment.
Twelve male and eight female rhesus monkeys were assigned to the study. Each group comprised of seven male and three female animals. During the acclimation period, animals were assigned to their respective dose groups by randomization based on the absolute neutrophil count. The average of 3 pretreatment absolute neutrophil counts were used for each animal.
The test article (100 mg/mL AED) and vehicle or control article in aliquots of 10 mL. Test article was an aqueous suspension in vehicle. The vehicle article consists of a solution of sodium shloride (0.9% w/v), carboxymethylcellulose (0.5% w/v), polysorbate 80 (2% v/v), benzalkonium chloride (0.02% v/v) and sodium phosphate (10 mM, pH 6.5). Immediately prior to drawing into a syringe, the test article formulation was briefly vortexed to uniformly distribute sedimented test article. Once drawn into a syringe, the test article was administered within 10 minutes. Just prior to injection, the syringe containing the test article was rotated end-over-end to uniformly disperse the compound.
Whole body radiation. The animals were exposed to ionizing as follows. Dosimetry measurements using phantoms, the dose rate and duration of irradiation and the actual time of irradiation for each individual animal was recorded. Animals were fasted overnight prior to whole-body irradiation and fed upon return to the housing facility.
The animals received a midline treatment dose of 600 cGy. The dose rate of the ^60Co gamma source was about 60 cGy per minute and the actual rate was recorded for each animal. To obtain a homogenous dose distribution, the radiation treatment was divided in two parts. First, the animal received half of the dose by anteroposterior irradiation. The second half of the dose was delivered by posteroanterior irradiation. […] The radiation dose was calibrated using an acrylic phantom placed in the same experimental set up that was used for animal irradiation.

## C[C@]12CC[C@H]3[C@@H](CC=C4C[C@@H](O)CC[C@@]43C)[C@@H]1CC[C@@H]2O [3β,17β-dihydroxyandrost-5-ene]
600 cGy 60Co whole body γ-irradiation, 15 mg/kg i.m. once per day for 5 consecutive days, first injection 2-3 hours after irradiation, 10 animals, observed to day 40-41
  animals survived: 9 of 10
600 cGy whole body irradiation, 15 mg/kg i.m. daily x5, 10 animals, p=0.009 by exact test of homogeneity vs vehicle (51 days)
  days of severe thrombocytopenia (less than 20,000 platelets/μL) experienced collectively by the group: 32 days
600 cGy whole body irradiation, 15 mg/kg i.m. daily x5, 95% CI 0,2, p=0.037 by exact log rank test vs vehicle (median 5 days)
  median days of febrile severe neutropenia: 0 days
600 cGy whole body irradiation, 15 mg/kg i.m. daily x5, Fisher's exact test mid p=0.073 vs two combined control groups (45% mortality)
  Mortality: 10%
600 cGy whole body irradiation, 15 mg/kg i.m. daily x5, the one non-survivor did not have the condition
  survivors having febrile severe neutropenia (core body temperature >40.4° C. and absolute neutrophil count less than 500 cells/μL) at some time during the protocol: 2 animals
